Experimental findings from patent US9867831B2, “Combination treatment of acute myeloid leukemia and myelodysplastic syndrome” (Boehringer Ingelheim International GmbH, priority 2014, dated 2018) are described below.

The test system of this test is human AML cell line MV4;11. Nature of the test: Nude mouse xenograft model derived from human AML cell line MV4;11 (tumor growth). As to conditions: MV4;11 s.c. xenograft in nude mice; Volasertib 20 mg/kg once a week i.v., Quizartinib 5 or 10 mg/kg daily p.o.; treated 14 days, observation without treatment up to day 87. It is filed as in vivo. Background: A xenograft is tissue or cells of one species grown in another, often human tumour cells in immunodeficient mice.

Description: Median tumor volumes are plotted over time. Day 1 was the first day, day 87 the last day of the experiment.
MV4;11 (CRL-9591) cells were obtained from ATCC. […] Cells were cultured in T175 tissue culture flasks at 37° C. and 5% CO2. The medium used was IMDM supplemented with 10% fetal calf serum, 1% NEAA, 1% sodium pyruvate and 1% glutamine.
Mice were 8 week-old athymic female BomTac: NMRI-Foxn1^nu purchased from Taconic, Denmark. After arrival in the animal facility, mice were allowed to adjust to ambient conditions for at least 3 days before they were used for experiments. They were housed in Macrolon® type II cages in groups of 5 under standardized conditions at 21.5±1.5° C. temperature and 55±10% humidity. Standardized diet (PROVIMI KLIBA) and autoclaved tap water were provided ad libitum.
To establish subcutaneous tumors, MV4;11 cells were harvested and resuspended in PBS+5% FCS at 5×10^7 cells/ml. 50 μl of the cell suspension containing 2.5×10^6 cells was then injected subcutaneously into the right flank of the mice (1 site per mouse). […]
The tumor diameter was measured three times a week with a caliper. The volume of each tumor [in mm^3] was calculated according to the formula “tumor volume=length*diameter^2*π/6”. To monitor side effects of treatment, mice were inspected daily for abnormalities and body weight was determined three times a week. […]

Take `CC(C)(C)c1cc(NC(=O)Nc2ccc(-c3cn4c(n3)sc3cc(OCCN5CCOCC5)ccc34)cc2)no1` [Quizartinib]: the “tumor growth kinetics (median tumor volumes over time)” value is “outgrowth of the tumor”.
